{"source": "paper PMC7307906", "about": "“Macrocyclic Modalities Combining Peptide Epitopes and Natural Product Fragments” (Journal of the American Chemical Society, 2020)", "key": {"[1]": {"biological_target": "T1, human MC1R (Homo sapiens, UniProt Q01726)", "T1 construct": "expressed in transfected cells", "T1 sequence (Q01726 whole entry)": "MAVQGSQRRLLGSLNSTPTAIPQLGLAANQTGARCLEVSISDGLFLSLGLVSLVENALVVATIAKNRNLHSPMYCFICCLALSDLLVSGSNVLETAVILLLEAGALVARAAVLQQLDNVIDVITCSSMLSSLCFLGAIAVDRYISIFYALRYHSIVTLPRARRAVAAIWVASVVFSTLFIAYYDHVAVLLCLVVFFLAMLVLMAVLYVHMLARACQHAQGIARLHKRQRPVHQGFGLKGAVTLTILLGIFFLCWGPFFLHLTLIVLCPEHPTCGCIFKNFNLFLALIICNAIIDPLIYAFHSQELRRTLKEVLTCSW", "assay": "cAMP assay (LANCE) in T-Rex-293 cells expressing MC1R", "format": "cell-based", "details": "T-REx-293; read-out: % Effect hMC1R cAMP"}, "[2]": {"biological_target": "T2, human MC5R (Homo sapiens, UniProt P33032)", "T2 construct": "expressed in transfected cells; host or cells: HEK293-6E suspension cells, transient expression; membranes", "T2 sequence (P33032 whole entry)": "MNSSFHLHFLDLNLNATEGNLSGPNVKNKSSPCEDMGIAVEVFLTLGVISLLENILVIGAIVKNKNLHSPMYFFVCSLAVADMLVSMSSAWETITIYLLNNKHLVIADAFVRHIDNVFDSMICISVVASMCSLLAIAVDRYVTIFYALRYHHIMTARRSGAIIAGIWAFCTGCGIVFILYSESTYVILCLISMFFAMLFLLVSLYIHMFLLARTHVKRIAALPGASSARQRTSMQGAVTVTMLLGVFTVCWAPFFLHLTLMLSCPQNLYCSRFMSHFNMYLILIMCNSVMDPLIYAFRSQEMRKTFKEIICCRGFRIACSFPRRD", "assay": "Melanocortin receptor radioligand binding (SPA, [125I]-NDP-α-MSH displacement), MC5R", "details": "competitive binding, [125I]-NDP-α-MSH; mean (± SEM) of at least three independent experiments; read-out: IC50 hMC5R binding"}, "[3]": {"biological_target": "T3, human MC3R (Homo sapiens, UniProt P41968)", "T3 construct": "expressed in transfected cells", "T3 sequence (P41968 whole entry)": "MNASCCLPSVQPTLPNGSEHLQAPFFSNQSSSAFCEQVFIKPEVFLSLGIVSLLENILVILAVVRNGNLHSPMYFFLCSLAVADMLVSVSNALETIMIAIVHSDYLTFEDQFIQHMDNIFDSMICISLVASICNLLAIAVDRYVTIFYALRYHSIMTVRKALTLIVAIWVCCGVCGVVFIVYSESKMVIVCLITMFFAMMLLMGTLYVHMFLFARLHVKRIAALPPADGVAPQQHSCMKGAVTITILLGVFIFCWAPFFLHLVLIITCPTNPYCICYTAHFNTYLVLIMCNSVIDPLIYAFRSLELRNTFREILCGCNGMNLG", "assay": "cAMP assay (LANCE) in T-Rex-293 cells expressing MC3R", "format": "cell-based", "details": "Emax (curve plateau), relative to NDP-α-MSH; NA = No Activity detected, threshold 20% effect"}, "[4]": {"biological_target": "T4, human MC4R (Homo sapiens, UniProt P32245)", "T4 construct": "expressed in transfected cells", "T4 sequence (P32245 whole entry)": "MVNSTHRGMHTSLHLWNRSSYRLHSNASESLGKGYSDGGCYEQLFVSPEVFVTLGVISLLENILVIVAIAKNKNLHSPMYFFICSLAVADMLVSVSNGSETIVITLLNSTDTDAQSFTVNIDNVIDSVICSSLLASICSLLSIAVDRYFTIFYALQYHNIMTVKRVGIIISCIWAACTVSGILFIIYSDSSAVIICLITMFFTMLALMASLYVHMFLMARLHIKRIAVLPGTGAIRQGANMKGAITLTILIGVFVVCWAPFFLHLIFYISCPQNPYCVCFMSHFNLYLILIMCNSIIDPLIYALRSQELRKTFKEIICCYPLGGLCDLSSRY", "assay": "cAMP assay (LANCE) in T-Rex-293 cells expressing MC4R", "format": "cell-based", "details": "Emax (curve plateau), relative to NDP-α-MSH; NA = No Activity detected, threshold 20% effect"}, "[5]": {"details": "resin"}, "[6]": {"details": "other bond, imine formation, then N-phenylmaleimide cycloaddition (RP-04), with chain assembly"}, "[7]": {"details": "other bond, N-phenylmaleimide (RP-04; imine cyclization/1,3-dipolar cycloaddition), 4 steps"}}, "note": "Where “and” joins values, the source holds several entries; their conditions need not be identical. Identical values can stand only once. Like-named read-outs stand apart in the source and are kept apart here."}
{"compound": "CN1C(=O)[C@@H]2N[C@H](c3ccc(cc3)C(=O)NCCCC[C@@H](C(=O)N[C@@H](Cc3ccc(O)cc3)C(N)=O)NC(=O)[C@@H](Cc3ccccc3)NC(=O)[C@@H](Cc3ccccc3)NC(=O)[C@H](CCCNC(=N)N)NC(=O)[C@@H]1Cc1ccccc1)[C@@H]1C(=O)N(c3ccccc3)C(=O)[C@@H]12", "note": "[O2-major, [II-FRffK ]Y]", "values": [{"measurement": "Emax", "setting": "[1]", "value": 62, "unit": "%"}]}
{"compound": "CC(=O)N[C@@H](CCCNC(=N)N)C(=O)N[C@H]1CSSC[C@@H](C(N)=O)NC(=O)[C@H](Cc2c[nH]c3ccccc23)NC(=O)[C@H](CCCNC(=N)N)NC(=O)[C@@H](Cc2ccccc2)NC(=O)[C@H](Cc2c[nH]cn2)NC(=O)[C@@H](C)NC1=O", "note": "[RM493, reference compound]", "values": [{"measurement": "IC50", "setting": "[2]", "value": "1800 ± 300", "unit": "nM"}, {"measurement": "Emax", "setting": "[1]", "value": 96, "unit": "%"}, {"measurement": "% Effect hMC3R cAMP", "setting": "[3]", "value": 98, "unit": "%"}, {"measurement": "% Effect hMC4R cAMP", "setting": "[4]", "value": 100, "unit": "%"}]}
{"compound": "[N-Ph-fused-di-pyrrolidine-NMeFRFFK], N3", "values": [{"measurement": "ring closure, yield after HPLC", "setting": "[5]; [6]", "value": 2, "unit": "%"}]}
{"compound": "[N-Ph-fused-di-pyrrolidine-NMeFRFFK]G, N2", "values": [{"measurement": "ring closure, yield after HPLC", "setting": "[5]; [6]", "value": "2% and 3%"}]}
{"compound": "[N-Ph-fused-di-pyrrolidine-NMeFRFFK]Y, N1", "values": [{"measurement": "ring closure, yield after HPLC", "setting": "[5]; other bond, imine formation, then N-phenylmaleimide cycloaddition (RP-04), 4 steps", "value": "16% and 10%"}]}
{"compound": "[N-Ph-fused-di-pyrrolidine-NMeFRFFNAK]Y", "values": [{"measurement": "ring closure, yield after HPLC", "setting": "[5]; [7]", "value": 2, "unit": "%"}]}
{"compound": "[N-Ph-fused-di-pyrrolidine-NMeFRffK]Y, O2", "values": [{"measurement": "ring closure, yield after HPLC", "setting": "[5]; [6]", "value": 2, "unit": "%"}]}
{"compound": "[N-Ph-fused-di-pyrrolidine-NMeFRffNK]G", "values": [{"measurement": "ring closure, yield after HPLC", "setting": "[5]; other bond, Fmoc removal (RP-03), imine cyclization/N-phenylmaleimide 1,3-dipolar cycloaddition (RP-04), 3 steps", "value": 1, "unit": "%"}]}
{"compound": "[N-Ph-fused-di-pyrrolidine-NMeFRffNK]Y", "values": [{"measurement": "ring closure, yield after HPLC", "setting": "[5]; amide bond, 31-membered ring, 3 steps", "value": 2, "unit": "%"}]}
{"compound": "[N-Ph-fused-di-pyrrolidine-NMeVDINNNK]G", "values": [{"measurement": "ring closure, yield after HPLC", "setting": "[5]; other bond, Fmoc removal, intramolecular imine, N-phenylmaleimide 1,3-dipolar cycloaddition, 4 steps", "value": "2% and 4%"}]}
{"compound": "[N-Ph-fused-di-pyrrolidine-NMeVINNNK]G", "values": [{"measurement": "ring closure, yield after HPLC", "setting": "[5]; [7]", "value": 7, "unit": "%"}]}
{"compound": "[Ph-pyrrolidinyl-spirooxindole-NMeFRffNAK]G", "values": [{"measurement": "ring closure, yield after HPLC", "setting": "[5]; other bond, (E)-3-benzylidene-indolin-2-one (RP-04; imine cyclization/1,3-dipolar cycloaddition), 4 steps", "value": 5, "unit": "%"}]}
{"compound": "[pyrrolidine-NMeFDINNNK]G", "values": [{"measurement": "ring closure, yield after HPLC", "setting": "[5]; other bond, Fmoc removal (RP-03), imine cyclization/1,3-dipolar cycloaddition, dimethyl maleate (RP-04), 4 steps", "value": "6% and 7%"}]}
